The results in this text go back to patent US20130338092A1, “COMPOUNDS AND METHODS FOR TARGETING LEUKEMIC STEM CELLS” (The Broad Institute, Inc., priority 2011, published 2013).

The test system of one experiment is normal HSPCs. Briefly: Normal HSPC coculture on primary MSC stroma. The protocol: The material was cleaned, crushed and sequentially passed through 100 and 70 μM filters (Falcon). […] The biotin-labeled cells were spun down, resuspended in 0.5% FBS in PBS, and incubated for 15-30 minutes at 4° C. with agitation with 1 mL of Dynabead M-280 streptavidin-linked magnetic beads per 4 mice. The bead-linked cells were depleted using magnetic separation and rinsed once. The lineage- and CD48-depleted cell fraction was labeled with streptavidin-APC-Cy7 antibody from BD Biosciences and c-kit-APC, Sca-1-FITC, CD48-Pacific Blue, and CD150 PE-Cy7 antibodies from eBioscience. DsRed-positive lineage-Sca-1+c-kit+CD48− HSCs were sorted using a FACS DiVa or FACS ARIA (BD Biosciences).
A total of 20 μL of 20 μg/mL fibronectin (Millipore) in PBS was added to each well of a 384-well clear-bottomed black tissue-culture treated plate (Corning) and incubated for 30-120 minutes at 33° C. or 37° C. […] The fibronectin solution was removed from each well using a 24-channel wand aspirator; then 30 μL of BMSC solution was added to plate 2000 BMSCs/well. […] Each plate was covered with a sterile rayon breathable membrane (VWR) and plastic lid, and then spun at 500 rpm (approximately 60× gravity) with slow braking. The plates were incubated at room temperature for 60-90 minutes before incubation at 33° C. with 5% CO2 for 3 days prior to HSC addition.
The sorted HSCs, SLAMs and progenitor cells were resuspended in phenol-red free alpha-MEM with 20% FBS and diluted to 10,000 cells/mL. A total of 20 μL of cell solution containing 200 hematopoietic cells was added to each well using a multichannel pipettor or liquid-dispensing system. Each plate was covered with a sterile rayon breathable membrane (VWR) and plastic lid, and then spun at 500 rpm (approximately 60×gravity) with slow braking. The plates were incubated at room temperature for 60-90 minutes before incubation at 33° C. with 5% CO2 overnight prior to compound or cytokine addition.
Image analysis was performed using MetaXpress software from MDC and CellProfiler software from the Broad Institute of Harvard and MIT.
Compound addition and incubation was performed as described for the LSC coculture screen above, but without a media change or readdition of the compound.
The selected set was screened in 8-point dose against both normal HSPCs with a high number of replicates (6) and LSC-enriched leukemia cells, each cocultured on primary MSCs.

The subject of experiment [1] is LSC-enriched leukemia cells (MLL-AF9). In words: Leukemia coculture assay on primary MSC stroma (cobblestoning readout). In kind it is cell-based, murine. Conditions: for leukemia-selective activity in coculture vs normal HSPCs: primary MSC stroma. The protocol:
Whole bone marrow were harvested from C57/B16 actin-dsRed mice (006051, Jackson Labs), subjected to red blood cell lysis (Qiagen), then granulocyte-macrophage progenitors (GMPs) were isolated by Fluorescence-activated cell sorting (FACsAria, Becton Dickinson). GMPs were spinfected twice (2500 rpm, 90 min, 37 C) in the presence of mIL3 (10 ng/ml, Peprotech), mIL6 (10 ng/ml, Peprotech), and mSCF (10 ng/ml, Peprotech) with pMSCV-MLL-AF9-Neo virus then transplanted into lethally irradiated C57/B16 recipients. After disease onset, the spleens were harvested and transplanted into sublethally irradiated secondary recipients. Subsequent transplantation of bulk spleen cells from leukemic secondary mice was repeated twice to generate leukemic GMPs from quaternary transplant leukemic mouse bone marrow.
Long bones and hips from moribund leukemic mice were harvested, cleaned, crushed and sequentially passed through 100 and 70 μM filters (Falcon). The cells were RBC lysed (Qiagen) and stained in PBS+2% FBS (Omega). Antibodies included lineage markers CD4, CD8, Gr1, Mac1, IL-7R, and Ter119 (Caltag), c-kit (17-1172-83, eBioscience), Sca-1 (11-5981-82, eBioscience), CD34 (11-0341-85, eBioscience), and CD16/32 (25-0161-82, eBioscience). Hoechst 33258 (H21491, Invitrogen) was also used, to identify live cells. Cells were sorted on a FacsAria II (Becton Dickinson).
The humerii, tibiae, ilia, femurs, and spine were isolated from actin-GFP mice (000329, Jackson Lab) crushed using a mortar and pestle, washed in phosphate-buffered saline (PBS) without magnesium and calcium (Gibco) with 0.5% fetal bovine serum (FBS) (HyClone) and filtered through a 70-μm filter. Red blood cell lysis was performed with ammonium-chloride/potassium-chloride (ACK) lysing buffer (Lonza), the cells were resuspended in α-MEM (StemCell Technologies), 20% FBS (HyClone) and 1× Pen-Strep (CellGro), plated in 25 ml in 150-cm^2 tissue-culture flasks (three per mouse), and incubated at 33° C. with 5% CO2. After 2-3 days, the medium was replaced with fresh α-MEM with 20% FBS. After 8-14 days, the cells were rinsed, split by trypsinization (CellGro), pooled, filtered through a 70 μm filter, replated at 3-4 million cells per 150-cm^2 tissue-culture flask, and grown at 33° C. with 5% CO2 for 3-4 days until nearly confluent. The cells were trypsinized, filtered, and resuspended in 0.5% FBS in PBS with biotin-conjugated anti-mouse CD105 antibody (eBioscience) for 15-30 minutes at room temperature. The CD105-labeled cells were incubated with Dynabead M-280 streptavidin-linked magnetic beads (Invitrogen) for 15-30 minutes at 4° C. with agitation and isolated using magnetic separation and rinsed once. The CD105^+ cell fraction was replated at 1-2 million cells per 150-cm^2 tissue-culture flask and incubated at 33° C. with 5% CO2 for 2-3 days.
The MSCs were trypsinized, filtered, diluted in phenol-red-free alpha-MEM with 20% FBS, and plated (30 μl for a total of 2000 cells per well) on 384-well clear-bottomed black tissue-culture treated plate (3712, Corning) pretreated with fibronectin (Millipore). Plate covers (VWR) were added, the plates were spun and at 500 with slow braking, and the cells were incubated at room temperature for 60-90 minutes before incubation at 33° C. with 5% CO2 for 3 days prior to hematopoietic cell plating. […]

Where [2] appears, read: Mus musculus, read-out: Normal IC50, HSPCs on primary MSC stroma, 8-point dose.
Where [3] appears, read: Mus musculus, MLL-AF9, LSCs on primary MSC stroma, 8-point dose, read-out: Leukemia IC50.
The mark [4] stands for this setting: Mus musculus, read-out: Normal IC50, statins (acid form), HSPCs cocultured on primary MSC stroma.
Setting [5] is: Mus musculus, MLL-AF9, statins (acid form), LSCs cocultured on primary MSC stroma, read-out: Leukemia IC50.

Read-outs that look alike come from different tables or passages of the source. A value given as a limit tells only on which side of the number the result lay.

On to `COc1cc2c(cc1OC)-c1c(C#N)c(-c3ccc(C)cc3)c(C(=O)c3cccs3)n1CC2` [BRD8404], for which the results for the 50% inhibitory concentration (IC50) (with normal HSPCs (setting [2]); in experiment [1] (setting [3])) were over 20000 nM and 149 nM, respectively.
On to `COc1cc(/C=C/C(=O)N2CCC=CC2=O)cc(OC)c1OC` [Piperlongumine], for which the half-inhibitory concentration (IC50) in the experiment with normal HSPCs (Mus musculus, read-out: Normal IC50) is about 20000 nM; in experiment [1] (Mus musculus, MLL-AF9, read-out: Leukemia IC50), 379 nM.
On to `C[C@@H]1CN([C@@H](C)CO)C(=O)c2cccc(NC(=O)Nc3ccccc3)c2O[C@@H]1CN(C)Cc1ccc(C(=O)Nc2ccccc2N)cc1` [BRD6708], for which the concentration for half-maximal inhibition (IC50) in the experiment with normal HSPCs (setting [2]) was over 20000 nM; in experiment [1] (setting [3]), 2140 nM.
In the case of `CC(C)c1c(C(=O)Nc2ccccc2)c(-c2ccccc2)c(-c2ccc(F)cc2)n1CC[C@@H](O)C[C@@H](O)CC(=O)O` [Atorvastatin], the IC50 is over 20000 nM with normal HSPCs (setting [4]) and at most 1900 nM in experiment [1] (setting [5]). In addition, the “leukemia-selective activity in coculture vs normal HSPCs” value (shortened to “leukemia-selective activity”) in experiment [1] is listed as “selectively inhibited leukemia cobblestoning”.
Take `CC(C)c1nc(N(C)S(C)(=O)=O)nc(-c2ccc(F)cc2)c1/C=C/[C@@H](O)C[C@@H](O)CC(=O)O` [Rosuvistatin]: the IC50 is over 20000 nM in the experiment on normal HSPCs (read-out: Normal IC50, statins (acid form), HSPCs cocultured on primary MSC stroma) and 1220 nM in experiment [1] (statins (acid form), LSCs cocultured on primary MSC stroma, read-out: Leukemia IC50). Also, in experiment [1], the “leukemia-selective activity” value is reported as “selectively inhibited leukemia cobblestoning”.
For `C[C@@H]1CN([C@@H](C)CO)C(=O)c2cccc(NC(=O)C3CCCCC3)c2O[C@@H]1CN(C)Cc1ccc(C(=O)Nc2ccccc2N)cc1` [BRD9608], the results for the IC50 (with normal HSPCs (setting [2]); in experiment [1] (setting [3])) were about 20000 nM and 699 nM, respectively.
Taken in the same sequence, the figures for `C=C1C(=O)O[C@@H]2[C@H]3O[C@]3(C)CC/C=C(\C)CC[C@@H]12` [Parthenolide] were over 20000 nM and 7500 nM.
Consider `CCC(C)(C)C(=O)O[C@H]1C[C@@H](C)C=C2C=C[C@H](C)[C@H](CC[C@@H]3C[C@@H](O)CC(=O)O3)[C@H]21` [Simvastatin], for which the values for the IC50 (in the experiment on normal HSPCs (setting [4]); in experiment [1] (setting [5])) were over 20000 nM and at most 15 nM, respectively.
Regarding `O=C(c1ccccc1)c1cc[n+](Cc2ccccn2)cc1` [BRD1856], the IC50 was over 20000 nM in the experiment on normal HSPCs (setting [2]) and 813 nM in experiment [1] (setting [3]).
With `COc1cc2c(cc1O)CC[C@@H]1[C@@H]2CC[C@]2(C)[C@@H](O)CC[C@@H]12` [2-Methoxy estradiol], the figures for the half-maximal inhibitory concentration (IC50) (with normal HSPCs (setting [2]); in experiment [1] (setting [3])) were over 20000 nM and 77 nM, respectively. Besides, the “leukemia-selective activity” value in experiment [1] is given as “displayed leukemia selectivity”.
Consider `COCc1c(C(C)C)nc(C(C)C)c(/C=C/[C@@H](O)C[C@@H](O)CC(=O)O)c1-c1ccc(F)cc1` [Cerivastatin], for which the results for the half-maximal inhibitory concentration (IC50) (with normal HSPCs (setting [4]); in experiment [1] (setting [5])) were over 20000 nM and under 10 nM, respectively.
On to Celastrol, for which the IC50 in the experiment with normal HSPCs (read-out: Normal IC50, HSPCs on primary MSC stroma, 8-point dose) is over 20000 nM; in experiment [1] (LSCs on primary MSC stroma, 8-point dose, read-out: Leukemia IC50) it was 102 nM.
Consider `CCOc1ccccc1NC(=O)C(C)Oc1ccc(OC)cc1` (stereo not drawn) [BRD1686], for which the IC50 with normal HSPCs (setting [2]) was over 20000 nM; in experiment [1] (setting [3]), 1420 nM.
With `c1cc(CN2CCCNCCNCCCNCC2)ccc1CN1CCCNCCNCCCNCC1` [AMD3100], the “leukemia-selective activity” value in experiment [1] is reported as “showed selectivity for LSCs over HSPCs”.
In the case of `CC[n+]1c(/C=C2/C=C(C)CC(C)C2)sc2ccccc21` (stereo not drawn) [BRD1319], the IC50 is over 20000 nM with normal HSPCs (setting [2]) and at most 10 nM in experiment [1] (setting [3]).
As to `CC[n+]1c(/C=C2\C=C(C)CC(C)(C)C2)oc2ccccc21` [BRD0638], the IC50 in the experiment on normal HSPCs (setting [2]) was over 20000 nM; in experiment [1] (setting [3]), at most 10 nM.
As to `CC(C)n1c(/C=C/C(O)CC(O)CC(=O)O)c(-c2ccc(F)cc2)c2ccccc21` (stereo not drawn) [Fluvastatin], the IC50 in the experiment on normal HSPCs (setting [4]) is over 20000 nM; in experiment [1] (setting [5]), 27.9 nM.
